Columns and labels:
[1] = test system: cyclin D1; assay: Cyclin D1 percentage degradation in Calu-1 cells (immunoblotting); assay type: cell-based; details: 16 hours
Procedure, shortened: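 Cyclin D1 degradation was assessed by western blot. Clarified lysates, obtained by RIPA lysis with inhibitors and centrifugation at 13,000 rpm, were normalized by BCA protein assay and separated by SDS-PAGE. Bands were detected with Western ECL Substrate on a Bio-Rad ChemiDoc MP Imaging system and quantified in Image Lab software to derive percentage degradation.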

[2] = biological target: T1, CDK4 (Homo sapiens, UniProt P11802); assay: CDK4 percentage degradation in Calu-1 cells (immunoblotting); assay type: cell-based; details: Calu-1 cells, 16 hours; for inhibition at 10 µM: read-out: CDK4 Degradation (10 μM); for inhibition at 0.2 µM: 200 nM, read-out: CDK4 Degradation (200 nM)
T1 construct: endogenous in cells; host or cells: Calu-1
T1 sequence (P11802 2-303 limits assumed): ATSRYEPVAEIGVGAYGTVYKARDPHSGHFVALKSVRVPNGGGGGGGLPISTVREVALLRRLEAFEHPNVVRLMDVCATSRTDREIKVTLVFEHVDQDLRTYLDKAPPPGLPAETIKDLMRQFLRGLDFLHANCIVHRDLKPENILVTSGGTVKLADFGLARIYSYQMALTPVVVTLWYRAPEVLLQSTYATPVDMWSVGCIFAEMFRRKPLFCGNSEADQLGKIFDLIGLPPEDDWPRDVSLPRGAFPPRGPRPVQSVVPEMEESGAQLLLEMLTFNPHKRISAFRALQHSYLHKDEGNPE
T1 sequence (P24385 whole entry partner): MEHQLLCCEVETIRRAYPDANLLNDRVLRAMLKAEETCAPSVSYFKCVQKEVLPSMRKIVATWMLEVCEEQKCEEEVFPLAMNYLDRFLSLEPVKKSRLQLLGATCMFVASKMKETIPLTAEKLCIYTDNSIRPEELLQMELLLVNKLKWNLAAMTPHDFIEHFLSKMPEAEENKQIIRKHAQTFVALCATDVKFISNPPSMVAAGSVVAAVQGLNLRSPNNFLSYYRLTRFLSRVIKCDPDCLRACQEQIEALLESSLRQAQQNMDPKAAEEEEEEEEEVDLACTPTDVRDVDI
T1 sequence (Q16531 2-1140 limits assumed, further chain): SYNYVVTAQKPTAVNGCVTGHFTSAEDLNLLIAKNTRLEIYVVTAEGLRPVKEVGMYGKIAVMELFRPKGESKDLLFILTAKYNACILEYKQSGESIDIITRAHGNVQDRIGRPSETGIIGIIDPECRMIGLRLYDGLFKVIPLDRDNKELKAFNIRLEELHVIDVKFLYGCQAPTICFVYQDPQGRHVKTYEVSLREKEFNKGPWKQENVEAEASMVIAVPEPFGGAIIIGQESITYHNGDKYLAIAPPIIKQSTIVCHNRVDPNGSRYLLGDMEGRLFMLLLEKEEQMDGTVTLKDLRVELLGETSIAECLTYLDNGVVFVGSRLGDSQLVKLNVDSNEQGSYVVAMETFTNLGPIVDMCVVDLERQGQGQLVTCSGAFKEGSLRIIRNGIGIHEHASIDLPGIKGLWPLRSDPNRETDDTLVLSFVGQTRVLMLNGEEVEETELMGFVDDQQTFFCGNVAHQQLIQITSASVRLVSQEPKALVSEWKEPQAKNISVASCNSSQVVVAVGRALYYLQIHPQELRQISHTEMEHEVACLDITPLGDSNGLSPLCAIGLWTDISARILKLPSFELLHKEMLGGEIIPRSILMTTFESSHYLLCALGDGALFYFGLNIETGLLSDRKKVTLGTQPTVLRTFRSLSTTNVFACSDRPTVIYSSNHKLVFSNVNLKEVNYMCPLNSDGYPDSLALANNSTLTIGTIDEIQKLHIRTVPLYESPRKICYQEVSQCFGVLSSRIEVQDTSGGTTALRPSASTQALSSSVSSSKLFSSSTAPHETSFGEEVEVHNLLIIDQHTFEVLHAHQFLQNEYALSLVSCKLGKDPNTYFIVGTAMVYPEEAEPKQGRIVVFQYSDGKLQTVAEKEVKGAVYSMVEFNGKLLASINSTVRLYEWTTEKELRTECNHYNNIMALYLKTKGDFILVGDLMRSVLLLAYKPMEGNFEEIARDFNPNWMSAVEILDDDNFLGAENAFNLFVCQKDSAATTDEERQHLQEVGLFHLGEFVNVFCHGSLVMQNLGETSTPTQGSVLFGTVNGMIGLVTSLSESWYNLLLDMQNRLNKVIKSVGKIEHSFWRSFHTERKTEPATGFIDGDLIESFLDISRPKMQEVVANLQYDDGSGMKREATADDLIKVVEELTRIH
Procedure, shortened: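 CDK4 degradation was measured by immunoblotting. Cells were washed in cold PBS and lysed in RIPA buffer with inhibitors for 30 min at 4° C., then spun at 13,000 rpm to clear. After BCA protein determination, lysates were heated at 99° C. for 5 min in Laemmli buffer, resolved on SDS-PAGE, imaged on a ChemiDoc MP with ECL substrate, and band intensities quantified.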

Structure (SMILES) | CyclinD1 Degradation (10 μM) [1] | inhibition at 10 µM [2] [%] | CyclinD1 Degradation (200 nM) [1] | inhibition at 0.2 µM [2] [%]
Cc1nc(NC(=O)c2ccccc2NC(=O)CCOCCOCCOCCNC(=O)CN2CCN(Cc3ccc(Nc4ncc(F)c(-c5cc(F)c6nc(C)n(C(C)C)c6c5)n4)nc3)CC2)sc1C [CPD-282, N-(4,5-Dimethylthiazol-2-yl)-2-(1-(4-((6-((5-fluoro-4-(4-fluoro-1-isopropyl-2-methyl-1H-benzo[d]imidazol-6-yl)pyrimidin-2-yl)amino)pyridin-3-yl)methyl)piperazin-1-yl)-2-oxo-6,9,12-trioxa-3-azapentadecan-15-amido)benzamide] | D (protein percentage degradation < 30%) | < 30 | – | –
Cc1nc(NC(=O)c2ccccc2NC(=O)CCOCCOCCOCCNC(=O)CN2CCN(c3ccc(Nc4ncc(F)c(-c5cc(F)c6nc(C)n(C(C)C)c6c5)n4)nc3)CC2)sc1C [CPD-310, N-(4,5-Dimethylthiazol-2-yl)-2-(1-(4-(6-((5-fluoro-4-(4-fluoro-1-isopropyl-2-methyl-1H-benzo[d]imidazol-6-yl)pyrimidin-2-yl)amino)pyridin-3-yl)piperazin-1-yl)-2-oxo-6,9,12-trioxa-3-azapentadecan-15-amido)benzamide] | A (protein percentage degradation >= 80%) | < 30 | – | –
CCCCNc1ccc(C(=O)Nc2nc(C)c(C)s2)c(NC(=O)CCOCCOCCNC(=O)CN2CCN(c3ccc(Nc4ncc5c(C)c(C(C)=O)c(=O)n(C6CCCC6)c5n4)nc3)CC2)c1 [CPD-168, 2-(3-(2-(2-(2-(4-(6-((6-Acetyl-8-cyclopentyl-5-methyl-7-oxo-7,8-dihydropyrido[2,3-d]pyrimidin-2-yl)amino)pyridin-3-yl)piperazin-1-yl)acetamido)ethoxy)ethoxy)propanamido)-4-(butylamino)-N-(4,5-dimethylthiazol-2-yl)benzamide] | – | – | A (protein percentage degradation >=80%) | 50 to 80
Cc1nc(NC(=O)c2ccccc2NC(=O)CNC(=O)CN2CCN(c3ccc(Nc4ncc(F)c(-c5cc(F)c6nc(C)n(C(C)C)c6c5)n4)nc3)CC2)sc1C [CPD-300, N-(4,5-Dimethylthiazol-2-yl)-2-(2-(2-(4-(6-((5-fluoro-4-(4-fluoro-1-isopropyl-2-methyl-1H-benzo[d]imidazol-6-yl)pyrimidin-2-yl)amino)pyridin-3-yl)piperazin-1-yl)acetamido)acetamido)benzamide] | D (protein percentage degradation < 30%) | < 30 | – | –
CC(=O)c1c(C)c2cnc(Nc3ccc(N4CCN(CC(=O)NCCCCC(=O)Nc5ccccc5C(=O)Nc5ccc(C)cn5)CC4)cn3)nc2n(C2CCCC2)c1=O [CPD-269, 2-(5-(2-(4-(6-((6-Acetyl-8-cyclopentyl-5-methyl-7-oxo-7,8-dihydropyrido[2,3-d]pyrimidin-2-yl)amino)pyridin-3-yl)piperazin-1-yl)acetamido)pentanamido)-N-(5-methylpyridin-2-yl)benzamide] | – | – | B (protein percentage degradation <80%, and >=50%) | 50 to 80
Cc1nc(NC(=O)c2ccccc2NC(=O)CCCCCCNC(=O)CN2CCN(c3ccc(Nc4ncc(F)c(-c5cc(F)c6nc(C)n(C(C)C)c6c5)n4)nc3)CC2)sc1C [CPD-305, N-(4,5-Dimethylthiazol-2-yl)-2-(7-(2-(4-(6-((5-fluoro-4-(4-fluoro-1-isopropyl-2-methyl-1H-benzo[d]imidazol-6-yl)pyrimidin-2-yl)amino)pyridin-3-yl)piperazin-1-yl)acetamido)heptanamido)benzamide] | D (protein percentage degradation < 30%) | < 30 | – | –
COc1ccc(NC(=O)c2ccccc2NC(=O)CCOCCOCCNC(=O)CN2CCN(c3ccc(Nc4ncc5c(C)c(C(C)=O)c(=O)n(C6CCCC6)c5n4)nc3)CC2)nc1 [CPD-342, 2-(3-(2-(2-(2-(4-(6-((6-Acetyl-8-cyclopentyl-5-methyl-7-oxo-7,8-dihydropyrido[2,3-d]pyrimidin-2-yl)amino)pyridin-3-yl)piperazin-1-yl)acetamido)ethoxy)ethoxy)propanamido)-N-(5-methoxypyridin-2-yl)benzamide] | – | – | A (protein percentage degradation >=80%) | 50 to 80
CC(=O)c1c(C)c2cnc(Nc3ccc(N4CCN(CC(=O)NCCOCCOCCOCCOCCOCCNc5ccc(C(=O)Nc6cc(C)n(C)n6)c(C)c5)CC4)cn3)nc2n(C2CCCC2)c1=O [CPD-050, 4-((1-(4-(6-((6-Acetyl-8-cyclopentyl-5-methyl-7-oxo-7,8-dihydropyrido[2,3-d]pyrimidin-2-yl)amino)pyridin-3-yl)piperazin-1-yl)-2-oxo-6,9,12,15,18-pentaoxa-3-azaicosan-20-yl)amino)-N-(1,5-dimethyl-1H-pyrazol-3-yl)-2-methylbenzamide] | – | – | A (protein percentage degradation >=80%) | > 80
CC(=O)c1c(C)c2cnc(Nc3ccc(N4CCN(CC(=O)NCCOCCOCCC(=O)Nc5ccccc5C(=O)Nc5ccc(OC(C)C)nn5)CC4)cn3)nc2n(C2CCCC2)c1=O [CPD-351, 2-(3-(2-(2-(2-(4-(6-((6-Acetyl-8-cyclopentyl-5-methyl-7-oxo-7,8-dihydropyrido[2,3-d]pyrimidin-2-yl)amino)pyridin-3-yl)piperazin-1-yl)acetamido)ethoxy)ethoxy)propanamido)-N-(6-isopropoxypyridazin-3-yl)benzamide] | – | – | D (protein percentage degradation <30%) | < 30
CC(=O)c1c(C)c2cnc(Nc3ccc(N4CCN(CC(=O)NCCOCCOCCNC(=O)CNc5ccc(C(=O)Nc6ncc(C)s6)c(C)c5)CC4)cn3)nc2n(C2CCCC2)c1=O [CPD-017, 4-((14-(4-(6-((6-Acetyl-8-cyclopentyl-5-methyl-7-oxo-7,8-dihydropyrido[2,3-d]pyrimidin-2-yl)amino)pyridin-3-yl)piperazin-1-yl)-2,13-dioxo-6,9-dioxa-3,12-diazatetradecyl)amino)-2-methyl-N-(5-methylthiazol-2-yl)benzamide] | – | – | D (protein percentage degradation <30%) | < 30
CC(=O)c1c(C)c2cnc(Nc3ccc(N4CCN(CC(=O)NCCOCCOCCC(=O)Nc5ccccc5C(=O)Nc5ccc(C)nn5)CC4)cn3)nc2n(C2CCCC2)c1=O [CPD-056, 2-(3-(2-(2-(2-(4-(6-((6-Acetyl-8-cyclopentyl-5-methyl-7-oxo-7,8-dihydropyrido[2,3-d]pyrimidin-2-yl)amino)pyridin-3-yl)piperazin-1-yl)acetamido)ethoxy)ethoxy)propanamido)-N-(6-methylpyridazin-3-yl)benzamide] | – | – | A (protein percentage degradation >=80%) | 50 to 80
CC(=O)c1c(C)c2cnc(Nc3ccc(N4CCN(CC(=O)NCCCCCCCC(=O)Nc5ccccc5C(=O)Nc5nc(C)c(C)s5)CC4)cn3)nc2n(C2CCCC2)c1=O [CPD-136, 2-(8-(2-(4-(6-((6-Acetyl-8-cyclopentyl-5-methyl-7-oxo-7,8-dihydropyrido[2,3-d]pyrimidin-2-yl)amino)pyridin-3-yl)piperazin-1-yl)acetamido)octanamido)-N-(4,5-dimethylthiazol-2-yl)benzamide] | – | – | A (protein percentage degradation >=80%) | 50 to 80

Source: US20250235543A1, “MODIFIED PROTEINS AND PROTEIN DEGRADERS” (Cullgen (Shanghai), Inc., priority 2021, published 2025)
